These results are taken from US20260315604A1, “OTUB1 Small-Molecule Binders and OTUB1-recruiting Deubiquitinase-targeting Chimeras (DUBTACs)” (ICAHN SCHOOL OF MEDICINE AT MOUNT SINAI, priority 2023, published 2026).

The target of the experiment is T1, Human OTUB1 wild-type (Homo sapiens, UniProt Q96FW1).
T1 construct: His tag (N); made in house; host or cells: E. coli BL21-CodonPlus (DE3)-RIPIL
T1 sequence (Q96FW1 whole entry): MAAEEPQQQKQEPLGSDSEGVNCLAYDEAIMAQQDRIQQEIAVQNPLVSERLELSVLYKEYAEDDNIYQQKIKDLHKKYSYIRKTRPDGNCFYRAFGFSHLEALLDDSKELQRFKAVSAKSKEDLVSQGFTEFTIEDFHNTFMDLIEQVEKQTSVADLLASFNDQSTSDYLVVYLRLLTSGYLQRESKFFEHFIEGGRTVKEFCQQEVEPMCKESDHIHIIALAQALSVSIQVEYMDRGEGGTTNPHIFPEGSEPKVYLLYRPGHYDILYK
As to the kind of experiment: Covalent modification of OTUB1 (adduct formation), mass spectrometry-based assay (OTUB1 covalent binders; selected CFTR or cGAS based bivalent compounds). As to conditions: covalent adduct formation with OTUB1 protein. It counts as binding. The protocol:
OTUB1 covalent binders were tested for their ability to form the covalent adduct with OTUB1 protein using a mass-spectrometry based assay.
Example 389. Assessment of the Covalent Modification of OTUB1 Protein by Selected OTUB1 Covalent Binders Using a Mass Spectrometry-Based Assay (FIG. 1)
OTUB1 protein (10 μM) was incubated with selecting compounds (2500 μM) at RT for 1 h. The adduct was qualified by mass spectrometry-based assays.
Example 398. Assessment of the Covalent Modification of OTUB1 Protein by Selected CFTR Based Bivalent Compounds Using Mass Spectrometry-Based Assay (FIG. 10)
OTUB1 protein (10 μM) was incubated with selecting bivalent compounds (2500 μM) at RT for 1 h. The adduct was qualified by mass spectrometry-based assays.
Human OTUB1 wild-type (NM_017670.3) and C23S mutation genes were optimized based on the codon preference of E. coli, synthesized and cloned into pET15b vector with a N-terminal His tag by Genscript, respectively. The plasmid was transferred to BL21-CodonPlus (DE3)-RIPIL Competent Cell (230280, Agilent Technologies) and the recombinant protein was induced expressed by 0.5 mM IPTG at 16° C. with shaking 200 rpm for 18 h. Induced cells were harvested by centrifugation and resuspended in cold lysis buffer (50 mM Tris-H—Cl pH 7.5, 150 mM NaCl, 25 mM imidazole pH 7.5, 0.01% IGEPAL, 5% Glycerol) in the presence of Pierce Protease Inhibitor tablets (PIA32963, Fisher Scientific) and 2 mM TCEP pH 7.5.
The cells were lysed by sonication, clarified by centrifugation, and the filtered supernatant loaded onto a 5 ml HisTrap HP affinity column (17524802, Cytiva) in AKTA system. The His-recombinant protein bound to column was washed using buffer A (50 mM Tris-HCl pH 7.5, 150 mM NaCl, 25 mM imidazole pH 7.5, 0.01% IGEPAL, 5% Glycerol) and eluted with buffer B (50 mM Tris-HCl pH 7.5, 150 mM NaCl, 250 mM imidazole pH 7.5, 0.01% IGEPAL, 5% Glycerol). The eluted fractions containing OTUB1 protein were concentrated and subjected to size exclusion chromatography using a 320 mL HiLoad 26/600 Superdex 200 pg column (28989336, Cytiva) under the buffer condition ([…] Tris-HCl pH 7.5, 150 mM NaCl, and 2 mM TCEP pH 7.5). The eluted fractions containing OTUB1 protein were concentrated, divided into aliquots and stored at −80° C. freezer for further usage.
Quality control of the OTUB1 proteins was performed by SDS-PAGE, Nanodrop and mass spectrometry.
Mass Spectrometry-Based Analysis of OTUB1-Covalent Ligand Adducts
To screen the covalent ligands, recombinant OTUB1 protein (10 μM) was respectively incubated with DMSO, EN523 or seven novel ligands (2500 μM) in reaction buffer (50 mM Tris-HCl pH 7.5, 150 mM NaCl, and 0.5 mM TCEP pH 7.5) for 1 h at room temperature.
Then, the total 500 μL reaction solution was exchanged and concentrated to 50 μL 50 mM ammonium bicarbonate with a 10 kDa MWCO centrifugal filter unit (UFC901024, Millipore) and diluted in MS buffer (30% ACN, 0.2% FA) to a final concentration of […]. Mass spectrometry detection was performed by an Agilent LC/MSD Time-Of-Flight (TOF) mass spectrometer (Agilent Technologies) equipped with an electrospray ion source. The data was analyzed by TOF Protein Confirmation Software. All experiments were performed in duplicate.
Take `CN(C)C/C=C/C(=O)N1CC(C(=O)Nc2cc3ccccc3s2)C1` [XS185-90, (E)-N-(benzo[b]thiophen-2-yl)-1-(4-(dimethylamino)but-2-enoyl)azetidine-3-carboxamide]: the “% of OTUB1 modified” value was determined as 60%. Consider `CN(C)C/C=C/C(=O)N1CC2(CC(C(=O)Nc3cc4ccccc4s3)C2)C1` [XS185-91, (E)-N-(benzo[b]thiophen-2-yl)-2-(4-(dimethylamino)but-2-enoyl)-2-azaspiro[3.3]heptane-6-carboxamide], for which the “% of OTUB1 modified” value amounted to 25%.

Regarding `Cc1ccc(C(=O)N2CCC3(CC2)CN(C(=O)/C=C/CN(C)C)C3)s1` [XS185-96, (E)-4-(dimethylamino)-1-(7-(5-methylthiophene-2-carbonyl)-2,7-diazaspiro[3.5]nonan-2-yl)but-2-en-1-one], the “% of OTUB1 modified” value was determined as 10%. Next, `Cc1ccc(C(=O)N2CCC3(CN(C(=O)/C=C/CN(C)C)C3)C2)s1` [XS185-97, (E)-4-(dimethylamino)-1-(6-(5-methylthiophene-2-carbonyl)-2,6-diazaspiro[3.4]octan-2-yl)but-2-en-1-one]: 25%; `Cc1ccc(N2CCC3(CC2)CN(C(=O)/C=C/CN(C)C)C3)s1` [XS185-101, (E)-4-(dimethylamino)-1-(7-(5-methylthiophen-2-yl)-2,7-diazaspiro[3.5]nonan-2-yl)but-2-en-1-one]: 23%. For `Cc1ccc(N2CC3(CCN(C(=O)/C=C/CN(C)C)CC3)C2)s1` [XS185-109, (E)-4-(dimethylamino)-1-(2-(5-methylthiophen-2-yl)-2,7-diazaspiro[3.5]nonan-7-yl)but-2-en-1-one], the “% of OTUB1 modified” value stood at 1%. With `CN(C)C/C=C/C(=O)N1CC2(CC(C(=O)Nc3cc4c(s3)CCCC4)C2)C1` [XS185-114, (E)-2-(4-(dimethylamino)but-2-enoyl)-N-(4,5,6,7-tetrahydrobenzo[b]thiophen-2-yl)-2-azaspiro[3.3]heptane-6-carboxamide], the “% of OTUB1 modified” value was 18%. On to `CN(C)C/C=C/C(=O)N1CCN(c2cc3ccccc3[nH]2)C(=O)C1` [XS185-116, (E)-4-(4-(dimethylamino)but-2-enoyl)-1-(1H-indol-2-yl)piperazin-2-one], for which the “% of OTUB1 modified” value was 55%. Turning to `CN(C)C/C=C/C(=O)N1CC(C(=O)NC2CCCC2)C1` [XS185-131, (E)-N-cyclopentyl-1-(4-(dimethylamino)but-2-enoyl)azetidine-3-carboxamide], the “% of OTUB1 modified” value is given as 18%. In the case of `CN(C)C/C=C/C(=O)N1CC2(CCN(c3cc4ccccc4s3)CC2)C1` [XS185-147, (E)-1-(7-(benzo[b]thiophen-2-yl)-2,7-diazaspiro[3.5]nonan-2-yl)-4-(dimethylamino)but-2-en-1-one] it was 15%. Next, `Cc1ccc(C(=O)NC2CN(C(=O)/C=C/CN(C)C)C2)s1` [XS190-9, (E)-N-(1-(4-(dimethylamino)but-2-enoyl)azetidin-3-yl)-5-methylthiophene-2-carboxamide]: 38%. Next, `CN(C)C/C=C/C(=O)N1C2CCC1C(=O)N(c1cc3ccccc3s1)C2` (centres unmarked) [XS190-38, (E)-3-(benzo[b]thiophen-2-yl)-8-(4-(dimethylamino)but-2-enoyl)-3,8-diazabicyclo[3.2.1]octan-2-one]: 100%; `CN(C)C/C=C/C(=O)N1C2CCC1C(=O)N(c1csc3ccccc13)C2` (centres unmarked) [XS190-44, (E)-3-(benzo[b]thiophen-3-yl)-8-(4-(dimethylamino)but-2-enoyl)-3,8-diazabicyclo[3.2.1]octan-2-one]: 97%. With `CN(C)C/C=C/C(=O)N1C2CCC1C(=O)N(c1ccc(-c3ccccc3)s1)C2` (centres unmarked) [XS190-45, (E)-8-(4-(dimethylamino)but-2-enoyl)-3-(5-phenylthiophen-2-yl)-3,8-diazabicyclo[3.2.1]octan-2-one], the “% of OTUB1 modified” value is on record as 90%. With `CN(C)C/C=C/C(=O)N1C2CC1CN(C(=O)c1cc3ccccc3s1)C2` [XS190-46, (E)-1-(3-(benzo[b]thiophene-2-carbonyl)-3,6-diazabicyclo[3.1.1]heptan-6-yl)-4-(dimethylamino)but-2-en-1-one], the “% of OTUB1 modified” value came out at 90%. On to `CN(C)C/C=C/C(=O)N1C2CC1CN(C(=O)c1csc3ccccc13)C2` [XS190-47, (E)-1-(3-(benzo[b]thiophene-3-carbonyl)-3,6-diazabicyclo[3.1.1]heptan-6-yl)-4-(dimethylamino)but-2-en-1-one], for which the “% of OTUB1 modified” value turned out to be 70%.

As for `CN(C)C/C=C/C(=O)N1C2CC1CN(C(=O)c1cc3c(s1)CCCC3)C2` [XS190-48, (E)-4-(dimethylamino)-1-(3-(4,5,6,7-tetrahydrobenzo[b]thiophene-2-carbonyl)-3,6-diazabicyclo[3.1.1]heptan-6-yl)but-2-en-1-one], the “% of OTUB1 modified” value was determined as 90%. In the case of `CN(C)C/C=C/C(=O)N1C2CC1CN(C(=O)c1csc3c1CCCC3)C2` [XS190-49, (E)-4-(dimethylamino)-1-(3-(4,5,6,7-tetrahydrobenzo[b]thiophene-3-carbonyl)-3,6-diazabicyclo[3.1.1]heptan-6-yl)but-2-en-1-one] it was 70%; in that of `CN(C)C/C=C/C(=O)N1C2CC1CN(C(=O)c1cc3c(s1)CCC3)C2` [XS190-50, (E)-1-(3-(5,6-dihydro-4H-cyclopenta[b]thiophene-2-carbonyl)-3,6-diazabicyclo[3.1.1]heptan-6-yl)-4-(dimethylamino)but-2-en-1-one], 92%. Next, `CC(=O)Nc1ccc2sc(C(=O)N3CC4CC(C3)N4C(=O)/C=C/CN(C)C)cc2c1` [XS190-59, (E)-N-(2-(6-(4-(dimethylamino)but-2-enoyl)-3,6-diazabicyclo[3.1.1]heptane-3-carbonyl)benzo[b]thiophen-5-yl)acetamide]: 92%; `CC(=O)N1CCc2sc(C(=O)N3CC4CC(C3)N4C(=O)/C=C/CN(C)C)cc2C1` [XS190-69, (E)-1-(3-(5-acetyl-4,5,6,7-tetrahydrothieno[3,2-c]pyridine-2-carbonyl)-3,6-diazabicyclo[3.1.1]heptan-6-yl)-4-(dimethylamino)but-2-en-1-one]: 88%. In the case of `CC(=O)N1CCc2sc(N3CC4CCC(C3=O)N4C(=O)/C=C/CN(C)C)cc2C1` (centres unmarked) [XS190-70, (E)-3-(5-acetyl-4,5,6,7-tetrahydrothieno[3,2-c]pyridin-2-yl)-8-(4-(dimethylamino)but-2-enoyl)-3,8-diazabicyclo[3.2.1]octan-2-one] it was 97%; in that of `Cc1ccc(C(=O)N2CC3CCC2CN3C(=O)/C=C/CN(C)C)s1` (centres unmarked) [XS190-77, (E)-4-(dimethylamino)-1-(5-(5-methylthiophene-2-carbonyl)-2,5-diazabicyclo[2.2.2]octan-2-yl)but-2-en-1-one], 7%. With `Cc1ccc(C(=O)N2C[C@@H]3C[C@H]2CN3C(=O)/C=C/CN(C)C)s1` [XS190-80, (E)-4-(dimethylamino)-1-((1S,4S)-5-(5-methylthiophene-2-carbonyl)-2,5-diazabicyclo[2.2.1]heptan-2-yl)but-2-en-1-one], the “% of OTUB1 modified” value was 7%. Next, `Cc1ccc(C(=O)N2C[C@H]3C[C@@H]2CN3C(=O)/C=C/CN(C)C)s1` [XS190-81, (E)-4-(dimethylamino)-1-((1R,4R)-5-(5-methylthiophene-2-carbonyl)-2,5-diazabicyclo[2.2.1]heptan-2-yl)but-2-en-1-one]: 10%. In the case of `CN(C)C/C=C/C(=O)N1C2CC1CN(C(=O)c1ccccc1)C2` [XS190-126, (E)-1-(3-benzoyl-3,6-diazabicyclo[3.1.1]heptan-6-yl)-4-(dimethylamino)but-2-en-1-one] it was 49%.
